In ChEMBL document CHEMBL1150576, “Two new lactones with mosquito larvicidal activity from three Hortonia species” (2001) one finds LC50 data, which are given here for 2 compounds.

In brackets after ≈: the same amount, converted by molar mass.

The test system of the assay is Aedes aegypti. Nature of the assay: Larvicidal activity against second instar larvae of Aedes aegypti. Type of assay: functional.

As usually defined, the LC50 is the concentration lethal to half of the exposed cells or organisms. A high value points to lower toxicity. As for `C#CCCCCCCCCCCC1=C[C@H](C)OC1=O`, the LC50 was determined as 0.41 µg/mL (≈ 1.56 µM). Then `C=CCCCCCCCCCCC1=C[C@H](C)OC1=O`, with 0.47 µg/mL (≈ 1.78 µM).
